Experimental data as given in article PMC9227119, “Hydroxybenzoic Acids as Acetylcholinesterase Inhibitors: Calorimetric and Docking Simulation Studies” (Nutrients, 2022).
Converted amounts (≈) assume the structure as drawn. “And” between values parts separate entries of the source, which are not always exact repeats. Equal entries are not always repeated.

Tested on: AChE
Experiment: not given
Parameters: method as in PMID 23229229
Conditions: AChE inhibition; cited from earlier work

| SMILES | IC50 [µM] |
| --- | --- |
| C[C@H](Cc1ccc(O)c(O)c1)[C@@H](C)Cc1ccc(O)c(O)c1 [nordihydroguaiaretic acid] | 46.2 |

Tested on: AChE
Experiment: not given
Conditions: mice administered with streptozotocin; dose-dependent; cited from earlier work

| SMILES | AChE activity in mice |
| --- | --- |
| COc1cc(C(=O)O)ccc1O [vanillic acid] | reduced |

Tested on: AChE
Experiment: not given
Conditions: anti-AChE activity; cited from earlier work

| SMILES | IC50 [µg/mL] |
| --- | --- |
| COc1cc(C(=O)O)cc(OC)c1O [syringic acid] | 18.73 (≈ 94.5 µM) |

Tested on: AChE
Experiment: not given
Conditions: AChE inhibition; literature result, no reference given; cited from earlier work

| SMILES | IC50 [µM] |
| --- | --- |
| COc1cc(C=O)ccc1O [vanillin] | 37 |

Tested on: AChE
Experiment: not given
Parameters: method as in PMID 18274286
Conditions: AChE inhibition; cited from earlier work
Remark: another data set of the same source

| SMILES | IC50 [µM] |
| --- | --- |
| O=C(O)c1cc(O)c(O)c(O)c1 [gallic acid] | 5.89 |

Tested on: AChE
Experiment: not given
Conditions: inhibitory activity for AChE; cited from earlier work

| SMILES | IC50 [µM] |
| --- | --- |
| COc1ccc2c3c1O[C@H]1C[C@@H](O)C=C[C@@]31CCN(C)C2 [calantamine, galantamine] | […] |
| CCN(C)C(=O)Oc1cccc([C@H](C)N(C)C)c1 [rivastigmine] | […] |

Tested on: AChE
Experiment: not given
Conditions: colorimetric method; cited from earlier work

| SMILES | Ellman’s Assay (inhibitory activity as eserine equivalent) |
| --- | --- |
| O=C(O)c1cccc(O)c1 [3-hydroxybenzoic acid] | 2.6 ± 0.1 nmol/L of Eserine |
| O=C(O)c1ccc(O)cc1 [4-hydroxybenzoic acid] | 3.7 ± 0.3 nmol/L of Eserine |
| O=C(O)C(=O)Cc1ccc(O)cc1 [4-hydroxyphenylpyruvic acid] | 23.6 ± 1.5 nmol/L of Eserine |
| CCOC(=O)c1ccc(O)cc1 [ethyl 4-hydroxybenzoate] | 28.1 ± 0.1 nmol/L of Eserine |
| CCOC(=O)c1ccc(O)c(OC)c1 [ethyl vanillate] | 33.5 ± 2.5 nmol/L of Eserine |
| O=C(O)c1cc(O)c(O)c(O)c1 [gallic acid] | 3.8 ± 0.1 nmol/L of Eserine |
| O=C(O)c1cc(O)ccc1O [gentisic acid] | 68.6 ± 0.7 nmol/L of Eserine |
| O=C(O)Cc1cc(O)ccc1O [homogentisic acid] | 9.6 ± 2.4 nmol/L of Eserine |
| COc1cc(CC(=O)O)ccc1O [homovanillic acid] | 21.8 ± 0.4 nmol/L of Eserine |
| COC(=O)c1cc(OC)c(O)c(OC)c1 [methyl syringate] | 9.1 ±1.6 nmol/L of Eserine |
| C[C@H](Cc1ccc(O)c(O)c1)[C@@H](C)Cc1ccc(O)c(O)c1 [nordihydroguaiaretic acid] | 37.3 ± 1.2 nmol/L of Eserine |
| O=C(O)c1ccccc1O [salicylic acid] | 11.8 ± 0.4 nmol/L of Eserine |
| COc1cc(C(=O)O)cc(OC)c1O [syringic acid] | 5.4 ± 0.1 nmol/L of Eserine |
| COc1cc(C(=O)O)ccc1O [vanillic acid] | 3.2 ± 0.0 nmol/L of Eserine |

Target: T1, Acetylcholinesterase from Electrophorus electricus (electric eel) (AChE) (Electrophorus electricus, UniProt O42275)
Experiment: ITC: titration of AChE with ligand, complexation (association) constant
Format: binding
Conditions: not given

T1 sequence (O42275 24-633): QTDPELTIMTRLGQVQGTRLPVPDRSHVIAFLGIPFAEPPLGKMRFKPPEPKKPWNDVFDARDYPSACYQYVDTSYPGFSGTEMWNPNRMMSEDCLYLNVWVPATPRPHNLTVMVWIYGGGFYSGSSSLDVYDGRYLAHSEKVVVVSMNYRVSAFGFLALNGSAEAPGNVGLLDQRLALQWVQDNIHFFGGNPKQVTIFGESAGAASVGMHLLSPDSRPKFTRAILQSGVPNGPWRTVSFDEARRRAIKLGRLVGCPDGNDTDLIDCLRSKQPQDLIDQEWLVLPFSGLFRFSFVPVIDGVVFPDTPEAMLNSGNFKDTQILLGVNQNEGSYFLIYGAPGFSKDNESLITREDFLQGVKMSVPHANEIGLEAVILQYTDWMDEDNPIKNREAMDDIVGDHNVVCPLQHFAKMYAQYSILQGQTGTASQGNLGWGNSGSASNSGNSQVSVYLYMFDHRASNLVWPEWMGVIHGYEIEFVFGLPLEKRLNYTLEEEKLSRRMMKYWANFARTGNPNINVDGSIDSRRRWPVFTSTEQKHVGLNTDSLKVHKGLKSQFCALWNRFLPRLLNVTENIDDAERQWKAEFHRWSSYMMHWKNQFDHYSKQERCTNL

| SMILES | Kd [µM] |
| --- | --- |
| O=C(O)c1cccc(O)c1 [3-hydroxybenzoic acid] | 15.6 |
| O=C(O)Cc1ccc(O)cc1 [4-hydroxyphenylacetic acid] | 15.1 |
| O=C(O)C(=O)Cc1ccc(O)cc1 [4-hydroxyphenylpyruvic acid] | 3.95 |
| CCOC(=O)c1ccc(O)cc1 [ethyl 4-hydroxybenzoate] | 48.7 |
| CCOC(=O)c1ccc(O)c(OC)c1 [ethyl vanillate] | 25.8 |
| O=C(O)c1cc(O)c(O)c(O)c1 [gallic acid] | 19.4 |
| O=C(O)c1cc(O)ccc1O [gentisic acid] | 13 |
| O=C(O)Cc1cc(O)ccc1O [homogentisic acid] | 8.55 |
| COc1cc(CC(=O)O)ccc1O [homovanillic acid] | 7.35 |
| COC(=O)c1cc(OC)c(O)c(OC)c1 [methyl syringate] | 6.48 |
| C[C@H](Cc1ccc(O)c(O)c1)[C@@H](C)Cc1ccc(O)c(O)c1 [nordihydroguaiaretic acid] | 17.3 |
| O=C(O)c1ccc(O)c(O)c1 [protocatechuic acid] | 17.4 |
| O=C(O)c1ccccc1O [salicylic acid] | 19.4 |
| COc1cc(C(=O)O)cc(OC)c1O [syringic acid] | 5.46 |
| COc1cc(C(=O)O)ccc1O [vanillic acid] | 19.1 |

Same assay, conditions: ITC, 36.6 °C; one binding site model

| SMILES | Ka × 10^3 (binding/association constant, ITC) |
| --- | --- |
| O=C(O)c1cccc(O)c1 [3-hydroxybenzoic acid] | 64.10 × 10^3 L/mol |
| O=C(O)Cc1ccc(O)cc1 [4-hydroxyphenylacetic acid] | 66.23 × 10^3 L/mol |
| O=C(O)C(=O)Cc1ccc(O)cc1 [4-hydroxyphenylpyruvic acid] | 253 × 10^3 L/mol |
| CCOC(=O)c1ccc(O)cc1 [ethyl 4-hydroxybenzoate] | 20.53 × 10^3 L/mol |
| CCOC(=O)c1ccc(O)c(OC)c1 [ethyl vanillate] | 38.76 × 10^3 L/mol |
| O=C(O)c1cc(O)c(O)c(O)c1 [gallic acid] | 51.55 × 10^3 L/mol |
| O=C(O)c1cc(O)ccc1O [gentisic acid] | 76.92 × 10^3 L/mol |
| O=C(O)Cc1cc(O)ccc1O [homogentisic acid] | 116.92 × 10^3 L/mol |
| COc1cc(CC(=O)O)ccc1O [homovanillic acid] | 136.05 × 10^3 L/mol |
| COC(=O)c1cc(OC)c(O)c(OC)c1 [methyl syringate] | 154.32 × 10^3 L/mol |
| C[C@H](Cc1ccc(O)c(O)c1)[C@@H](C)Cc1ccc(O)c(O)c1 [nordihydroguaiaretic acid] | 57.80 × 10^3 L/mol |
| O=C(O)c1ccc(O)c(O)c1 [protocatechuic acid] | 57.63 × 10^3 L/mol |
| O=C(O)c1ccccc1O [salicylic acid] | 51.55 × 10^3 L/mol |
| COc1cc(C(=O)O)cc(OC)c1O [syringic acid] | 183.15 × 10^3 L/mol |
| COc1cc(C(=O)O)ccc1O [vanillic acid] | 52.36 × 10^3 L/mol |

Same assay, conditions: ITC; restated in L/mol

| SMILES | Ka (association constant, ITC) [L/mol] |
| --- | --- |
| O=C(O)C(=O)Cc1ccc(O)cc1 [4-hydroxyphenylpyruvic acid] | 253000 |
| COC(=O)c1cc(OC)c(O)c(OC)c1 [methyl syringate] | 154000 |
| COc1cc(C(=O)O)cc(OC)c1O [syringic acid] | 180000 |

Target: T1, Acetylcholinesterase from Electrophorus electricus (electric eel) (AChE)
Experiment: not given
Format: biochemical
Conditions: 36.6 °C, AChE 1 μmol/L in cell, syringe hydroxybenzoic acid 0.5 mmol/L and ACh 1 mmol/L, mean ± SD of three

| SMILES | % Inhibition (inhibitory activity, ITC) [%] |
| --- | --- |
| O=C(O)c1cccc(O)c1 [3-hydroxybenzoic acid] | 74.80 ± 8.63 |
| O=C(O)Cc1ccc(O)cc1 [4-hydroxyphenylacetic acid] | 80.20 ± 8.04 |
| O=C(O)C(=O)Cc1ccc(O)cc1 [4-hydroxyphenylpyruvic acid] | 84.93 ± 5.82 |
| CCOC(=O)c1ccc(O)cc1 [ethyl 4-hydroxybenzoate] | 15.93 ± 0.75 |
| CCOC(=O)c1ccc(O)c(OC)c1 [ethyl vanillate] | 14.60 ± 2.33 |
| O=C(O)c1cc(O)c(O)c(O)c1 [gallic acid] | 53.70 ± 2.86 |
| O=C(O)c1cc(O)ccc1O [gentisic acid] | 62.38 ± 6.39 |
| O=C(O)Cc1cc(O)ccc1O [homogentisic acid] | 68.78 ± 0.88 |
| COc1cc(CC(=O)O)ccc1O [homovanillic acid] | 77.50 ± 2.59 |
| COC(=O)c1cc(OC)c(O)c(OC)c1 [methyl syringate] | 90.93 ± 7.13 |
| C[C@H](Cc1ccc(O)c(O)c1)[C@@H](C)Cc1ccc(O)c(O)c1 [nordihydroguaiaretic acid] | 77.20 ± 4.84 |
| O=C(O)c1ccc(O)c(O)c1 [protocatechuic acid] | 77.15 ± 5.16 |
| O=C(O)c1ccccc1O [salicylic acid] | 82.30 ± 4.77 |
| COc1cc(C(=O)O)cc(OC)c1O [syringic acid] | 71.80 ± 3.12 |
| COc1cc(C(=O)O)ccc1O [vanillic acid] | 73.70 ± 1.90 |

Same assay, conditions: 36.6 °C, ligand amount per AChE monomer that inhibits ACh hydrolysis by 50%

| SMILES | IC50 (ITC) |
| --- | --- |
| O=C(O)c1cccc(O)c1 [3-hydroxybenzoic acid] | 6.68 μmol/μmol AChE and 6.68 ± 0.77 μmol/μmol AChE |
| O=C(O)Cc1ccc(O)cc1 [4-hydroxyphenylacetic acid] | 6.24 μmol/μmol AChE and 6.24 ± 0.63 μmol/μmol AChE |
| O=C(O)C(=O)Cc1ccc(O)cc1 [4-hydroxyphenylpyruvic acid] | 5.89 μmol/μmol AChE and 5.89 ± 0.40 μmol/μmol AChE |
| CCOC(=O)c1ccc(O)cc1 [ethyl 4-hydroxybenzoate] | 31.38 ± 1.48 μmol/μmol AChE |
| CCOC(=O)c1ccc(O)c(OC)c1 [ethyl vanillate] | 34.19 μmol/μmol AChE and 34.19 ± 5.46 μmol/μmol AChE |
| O=C(O)c1cc(O)c(O)c(O)c1 [gallic acid] | 9.32 μmol/μmol AChE and 9.32 ± 0.50 μmol/μmol AChE |
| O=C(O)c1cc(O)ccc1O [gentisic acid] | 8.02 μmol/μmol AChE and 8.02 ± 0.82 μmol/μmol AChE |
| O=C(O)Cc1cc(O)ccc1O [homogentisic acid] | 7.16 μmol/μmol AChE and 7.16 ± 0.09 μmol/μmol AChE |
| COc1cc(CC(=O)O)ccc1O [homovanillic acid] | 6.45 μmol/μmol AChE and 6.45 ± 0.22 μmol/μmol AChE |
| COC(=O)c1cc(OC)c(O)c(OC)c1 [methyl syringate] | 5.50 μmol/μmol AChE and 5.50 ± 0.43 μmol/μmol AChE |
| C[C@H](Cc1ccc(O)c(O)c1)[C@@H](C)Cc1ccc(O)c(O)c1 [nordihydroguaiaretic acid] | 6.47 μmol/μmol AChE and 6.47 ± 0.41 μmol/μmol AChE |
| O=C(O)c1ccc(O)c(O)c1 [protocatechuic acid] | 6.50 ± 0.43 μmol/μmol AChE |
| O=C(O)c1ccccc1O [salicylic acid] | 6.07 ± 0.35 μmol/μmol AChE |
| COc1cc(C(=O)O)cc(OC)c1O [syringic acid] | 6.96 ± 0.30 μmol/μmol AChE |
| COc1cc(C(=O)O)ccc1O [vanillic acid] | 6.79 μmol/μmol AChE and 6.79 ± 0.18 μmol/μmol AChE |

Same assay, conditions: 36.6 °C, ligand amount per AChE monomer that inhibits ACh hydrolysis by 50%, listed as Protocatechic acid

| SMILES | IC50 (ITC) [μmol/μmol AChE] |
| --- | --- |
| O=C(O)c1ccc(O)c(O)c1 [protocatechuic acid] | 6.50 |

Same assay, conditions: 36.6 °C, ligand amount per AChE monomer that inhibits ACh hydrolysis by 50%, listed as Salicylic acid

| SMILES | IC50 (ITC) [μmol/μmol AChE] |
| --- | --- |
| O=C(O)c1ccccc1O [salicylic acid] | 6.07 |

Same assay, conditions: 36.6 °C, ligand amount per AChE monomer that inhibits ACh hydrolysis by 50%, listed as Syringic acid

| SMILES | IC50 (ITC) [μmol/μmol AChE] |
| --- | --- |
| COc1cc(C(=O)O)cc(OC)c1O [syringic acid] | 6.96 |

Same assay, conditions: 36.6 °C, ligand amount per AChE monomer that inhibits ACh hydrolysis by 50%, listed as ethylhydroxybenzoate

| SMILES | IC50 (ITC) [μmol/μmol AChE] |
| --- | --- |
| CCOC(=O)c1ccc(O)cc1 [ethyl 4-hydroxybenzoate] | 31.38 |
